Consider twelve molecules from patent US12414565B2, “Pyridazine (THIO)amides as fungicidal compounds” (Bayer Aktiengesellschaft, priority 2018, dated 2025).

One assay deals with Pyrenophora teres. Description: In vivo preventive test on Pyrenophora teres (net blotch on barley). Particulars: 240 h, 500 ppm of active ingredient, preventive spray on barley, evaluated 10 days after inoculation, 100% = no disease, read-out: efficacy. On the procedure: (§1) The active ingredients were made soluble and homogenized in a mixture of Dimethyl sulfoxide/Acetone/Tween® 80 and then diluted in water to the desired concentration.
The young plants of barley were treated by spraying the active ingredient prepared as described above. Control plants were treated only with an aqueous solution of Acetone/Dimethyl sulfoxide/Tween® 80.
After 24 hours, the plants were contaminated by spraying the leaves with an aqueous suspension of Pyrenophora teres spores. The contaminated barley plants were incubated for 48 hours at 20° C. and at 100% relative humidity and then for 8 days at 20° C. and at 70-80% relative humidity.
The test was evaluated 10 days after the inoculation. 0% means an efficacy which corresponds to that of the control plants while an efficacy of 100% means that no disease was observed.

The test system of a further assay is Alternaria brassicae. The experiment in a line: In vivo preventive test on Alternaria brassicae (leaf spot on radish or cabbage). Particulars: 144 h, 500 ppm of active ingredient, preventive spray on radish or cabbage, evaluated 6 days after inoculation, 100% = no disease, read-out: efficacy. As for the experimental part: as §1
The young plants of radish or cabbage were treated by spraying the active ingredient prepared as described above. Control plants were treated only with an aqueous solution of Acetone/Dimethyl sulfoxide/Tween® 80.
After 24 hours, the plants were contaminated by spraying the leaves with an aqueous suspension of Alternaria brassicae spores. The contaminated radish or cabbage plants were incubated for 6 days at 20° C. and at 100% relative humidity.
The test was evaluated 6 days after the inoculation. 0% means an efficacy which corresponds to that of the control plants while an efficacy of 100% means that no disease was observed.

A further assay relates to Botrytis cinerea. Description: In vivo preventive test on Botrytis cinerea (grey mould). The settings on record: 500 ppm of active ingredient, preventive spray on gherkin or cabbage, evaluated 4 to 5 days after inoculation, 100% = no disease, read-out: efficacy. On the procedure: as §1
The young plants of gherkin or cabbage were treated by spraying the active ingredient prepared as described above. Control plants were treated only with an aqueous solution of Acetone/Dimethyl sulfoxide/Tween® 80.
After 24 hours, the plants were contaminated by spraying the leaves with an aqueous suspension of Botrytis cinerea spores. The contaminated gherkin plants were incubated for 4 to 5 days at 17° C. and at 90% relative humidity. The contaminated cabbage plants were incubated for 4 to 5 days at 20° C. and at 100% relative humidity.
The test was evaluated 4 to 5 days after the inoculation. 0% means an efficacy which corresponds to that of the control plants while an efficacy of 100% means that no disease was observed.

A further assay has as its system Sphaerotheca fuliginea. The experiment in a line: In vivo preventive test on Sphaerotheca fuliginea (powdery mildew on cucurbits). The settings on record: Podosphaera fuliginea, 192 h; 500 ppm of active ingredient; preventive spray on gherkin; evaluated 8 days after inoculation; 100% = no disease; read-out: efficacy. On the procedure:
as §1
The young plants of gherkin were treated by spraying the active ingredient prepared as described above. Control plants were treated only with an aqueous solution of Acetone/Dimethyl sulfoxide/Tween® 80.
After 24 hours, the plants were contaminated by spraying the leaves with an aqueous suspension of Sphaerotheca fuliginea spores. The contaminated gherkin plants were incubated for 8 days at 20° C. and at 70-80% relative humidity.
The test was evaluated 8 days after the inoculation. 0% means an efficacy which corresponds to that of the control plants while an efficacy of 100% means that no disease was observed.

Assay [1] deals with Colletotrichum lindemuthianum. The experiment in a line: Colletotrichum lindemuthianum in vitro cell test. Format: cell-based. The settings on record: 144 h, 20 ppm of active ingredient, liquid culture, 6 days incubation, absorbance, read-out: efficacy (inhibition of fungal growth). As for the experimental part:
(§2) [table] Fungicides were solubilized in DMSO and the solution used to prepare the required range of concentrations. The final concentration of DMSO used in the assay was ≤1%. A spore suspension of C. lindemuthianum was prepared and diluted to the desired spore density. Fungicides were evaluated for their ability to inhibit spores germination and mycelium growth in liquid culture assay. The compounds were added in the desired concentration to the culture medium with spores. After 6 days incubation, fungi-toxicity of compounds was determined by spectrometric measurement of mycelium growth. Inhibition of fungal growth was determined by comparing the absorbance values in wells containing the fungicides with the absorbance in control wells without fungicides.

The test system of another assay is Alternaria alternata. Description: Alternaria alternata in vitro cell test. Format: cell-based. The settings on record: 120 h, 20 ppm of active ingredient, liquid culture, 5 days incubation, absorbance, read-out: efficacy (inhibition of fungal growth). As for the experimental part:
as §2, with “was <1%.” for “was ≤1%.”, “of A. alternata” for “of C. lindemuthianum”, “inhibit spore” for “inhibit spores”, “After 5” for “After 6”

In the case of `CC(=O)c1cc(C(=O)NCC(F)c2ccc(Br)cc2Cl)c(Oc2cccc(C(F)(F)F)c2)nn1` (racemic) [I-605, 6-acetyl-N-[rac-2-(4-bromo-2-chloro-phenyl)-2-fluoro-ethyl]-3-[3-(trifluoromethyl)phenoxy]pyridazine-4-carboxamide], the pest or weed control at 500 ppm in the assay with Pyrenophora teres fell in the range of 70 to 79%; in the assay with Alternaria brassicae, 90 to 100%; in the assay on Botrytis cinerea, 70 to 79%; in the assay on Sphaerotheca fuliginea it was 90 to 100%. In addition, the inhibition at 20 ppm (in assay [1]; in the assay on Alternaria alternata) was 90 to 100% throughout.

`Cc1ccc(C(F)(F)CNC(=O)c2cc(Cl)nnc2Oc2cccc(C(F)(F)F)c2)c(C)c1` [I-014, 6-chloro-N-[2-(2,4-dimethylphenyl)-2,2-difluoro-ethyl]-3-[3-(trifluoromethyl)phenoxy]pyridazine-4-carboxamide]: the pest or weed control at 500 ppm with Pyrenophora teres was 70 to 79%; with Alternaria brassicae, 90 to 100%; in the assay with Botrytis cinerea, 90 to 100%; with Sphaerotheca fuliginea, 90 to 100%. The inhibition at 20 ppm (in assay [1]; with Alternaria alternata) was 90 to 100% each time.

As for `Cc1ccc(C(F)(F)CNC(=O)c2c(Oc3cccc(C(F)(F)F)c3)nnc(Cl)c2I)c(C)c1` [I-020, 6-chloro-N-[2-(2,4-dimethylphenyl)-2,2-difluoro-ethyl]-5-iodo-3-[3-(trifluoromethyl)phenoxy]pyridazine-4-carboxamide], the pest or weed control at 500 ppm lay in the range of 80 to 89% in the assay with Pyrenophora teres, 90 to 100% with Alternaria brassicae, 90 to 100% in the assay with Botrytis cinerea and 90 to 100% with Sphaerotheca fuliginea. The inhibition at 20 ppm (in assay [1]; in the assay with Alternaria alternata) was 90 to 100% each time.

Consider `Cc1ccc(CCNC(=S)c2cc(C)nnc2Oc2cccc(C(F)(F)F)c2)c(C)c1` [I-094, N-[2-(2,4-dimethylphenyl)ethyl]-6-methyl-3-[3-(trifluoromethyl)phenoxy]pyridazine-4-carbothioamide], for which the pest or weed control at 500 ppm is 80 to 89% with Pyrenophora teres, 90 to 100% in the assay with Alternaria brassicae, 90 to 100% with Botrytis cinerea and 90 to 100% with Sphaerotheca fuliginea. For the same molecule, the inhibition at 20 ppm in assay [1] lay within 90 to 100%; in the assay on Alternaria alternata it was 80 to 89%.

Regarding `Cc1cc(C2CC2)ccc1C(F)(F)CNC(=O)c1cc(Cl)nnc1Oc1cccc(C(F)(F)F)c1` [I-240, 6-chloro-N-[2-(4-cyclopropyl-2-methyl-phenyl)-2,2-difluoro-ethyl]-3-[3-(trifluoromethyl)phenoxy]pyridazine-4-carboxamide], the pest or weed control at 500 ppm in the assay on Pyrenophora teres was in the range of 70 to 79%; with Alternaria brassicae, 90 to 100%; in the assay on Botrytis cinerea, 90 to 100%; with Sphaerotheca fuliginea, 90 to 100%. Further, the inhibition at 20 ppm (in assay [1]; with Alternaria alternata) was 90 to 100% throughout.

With `CCc1c(Cl)nnc(Oc2cccc(C(F)(F)F)c2)c1C(=O)NCC(F)(F)c1ccc(Cl)cc1` [I-254, 6-chloro-N-[2-(4-chlorophenyl)-2,2-difluoro-ethyl]-5-ethyl-3-[3-(trifluoromethyl)phenoxy]pyridazine-4-carboxamide], the pest or weed control at 500 ppm in the assay with Alternaria brassicae, in the assay on Botrytis cinerea and in the assay on Sphaerotheca fuliginea was 90 to 100% throughout. For the same molecule, the inhibition at 20 ppm (in assay [1]; in the assay with Alternaria alternata) was 90 to 100% in each case.

Consider `COC(=O)N(CC(F)(F)c1ccc(C)cc1C)C(=O)c1cc(Cl)nnc1Oc1cccc(C(F)(F)F)c1` [I-335, methyl N-[6-chloro-3-[3-(trifluoromethyl)phenoxy]pyridazine-4-carbonyl]-N-[2-(2,4-dimethylphenyl)-2,2-difluoro-ethyl]carbamate], for which the pest or weed control at 500 ppm in the assay with Alternaria brassicae was 80 to 89%; in the assay with Botrytis cinerea, 90 to 100%; in the assay on Sphaerotheca fuliginea, 80 to 89%. Besides, the inhibition at 20 ppm in assay [1] was in the range of 80 to 89%; in the assay with Alternaria alternata, 70 to 79%.

Take `Cc1ccc(C(F)(F)CNC(=O)c2c(Oc3cccc(C(F)(F)F)c3)nnc(Cl)c2NC2COC2)c(C)c1` [I-408, 6-chloro-N-[2-(2,4-dimethylphenyl)-2,2-difluoro-ethyl]-5-(oxetan-3-ylamino)-3-[3-(trifluoromethyl)phenoxy]pyridazine-4-carboxamide]: the pest or weed control at 500 ppm was 70 to 79% in the assay with Pyrenophora teres, 90 to 100% in the assay on Alternaria brassicae, 90 to 100% in the assay on Botrytis cinerea and 90 to 100% in the assay on Sphaerotheca fuliginea. Moreover, the inhibition at 20 ppm (in assay [1]; in the assay on Alternaria alternata) was 90 to 100% in each case.

On to `Cc1ccc(C(F)(F)CNC(=O)c2cc(I)nnc2Oc2cccc(C(F)(F)F)c2)c(C)c1` [I-461, N-[2-(2,4-dimethylphenyl)-2,2-difluoro-ethyl]-6-iodo-3-[3-(trifluoromethyl)phenoxy]pyridazine-4-carboxamide], for which the pest or weed control at 500 ppm in the assay on Pyrenophora teres was 80 to 89%; with Alternaria brassicae, 90 to 100%; with Botrytis cinerea it was 90 to 100%; in the assay on Sphaerotheca fuliginea it was 90 to 100%. The inhibition at 20 ppm (in assay [1]; with Alternaria alternata) was 90 to 100% each time.

Turning to `O=C(NCC(F)(F)c1ccc(Br)cc1Cl)c1cc(Cl)nnc1Oc1cccc(F)c1F` [I-530, N-[2-(4-bromo-2-chloro-phenyl)-2,2-difluoro-ethyl]-6-chloro-3-(2,3-difluorophenoxy)pyridazine-4-carboxamide], the pest or weed control at 500 ppm in the assay with Pyrenophora teres is 70 to 79%; in the assay with Alternaria brassicae it was 90 to 100%; in the assay on Botrytis cinerea, 90 to 100%; in the assay on Sphaerotheca fuliginea, 90 to 100%. The inhibition at 20 ppm (in assay [1]; with Alternaria alternata) was 90 to 100% throughout.

Regarding `Cc1ccc(C(F)(F)CNC(=O)c2cc(C)nnc2Oc2cccc(C3CCC3)c2)c(C)c1` [I-564, 3-(3-cyclobutylphenoxy)-N-[2-(2,4-dimethylphenyl)-2,2-difluoro-ethyl]-6-methyl-pyridazine-4-carboxamide], the pest or weed control at 500 ppm was 80 to 89% in the assay on Alternaria brassicae, 90 to 100% with Botrytis cinerea and 80 to 89% in the assay on Sphaerotheca fuliginea. The values for the inhibition at 20 ppm (in assay [1]; in the assay on Alternaria alternata) were 70 to 79% and 90 to 100%, respectively.

In the case of `CSc1cc(C(=O)NCC(F)(F)c2ccc(C)cc2C)c(Oc2cccc(C(F)(F)F)c2)nn1` [I-767, N-[2-(2,4-dimethylphenyl)-2,2-difluoro-ethyl]-6-methylsulfanyl-3-[3-(trifluoromethyl)phenoxy]pyridazine-4-carboxamide], the pest or weed control at 500 ppm in the assay with Pyrenophora teres lay in the range of 80 to 89%; with Alternaria brassicae, 90 to 100%; with Botrytis cinerea, 90 to 100%; in the assay with Sphaerotheca fuliginea, 90 to 100%. Moreover, the inhibition at 20 ppm (in assay [1]; in the assay on Alternaria alternata) was 90 to 100% each time.

Broadly, the inhibition is the change of the read-out against control, counted positive when it falls.
